# Data reported in patent US20130022612A1, “METHODS AND COMPOSITIONS FOR MALARIA PROPHYLAXIS” (priority 2004, published 2013).
# Tests used:
# P. berghei sporozoites [1] = type: cell-based, Plasmodium berghei
# Protocol: %invasion=total sporozites−extracellular sporozites×100/total sporozites
# Invasion assays were performed as previously described (Pinzon-Ortiz, C., et al.) with some modifications. […] Cells were then washed, fixed, and sporozoites were stained with a double staining assay that distinguishes between intracellular and extracellular sporozoites (Renia, L., et al.). […]
# P. yoelii sporozoites [2] = settings: preincubated with 10 mM E-64
# Protocol: Lab-Tek glass slides (model 177402, Nalgene Nunc Corp., Naperville, Il.) were coated with […] of mAb 3D11 (P. berghei) or mAbs 2F6 and NYS1 (P. yoelii) and sporozoites pre-incubated with DMEM/BSA alone or supplemented with 10 mM E-64 or CD for two hours at 28° C. were added in the continued presence of the inhibitor for one hour at 37° C. in a humidified chamber with 5% CO2. The slides were then fixed with 4% paraformaldehyde, incubated with 1:100 dilution of either biotinylated mAb 3D11 (P. berghei) or biotinylated mAb NYS1 (P. yoelii) followed by streptavidin-FITC.
# [3] = tested on: sporozoite migration through cells; settings: 10 mM E-64, rhodamine-dextran positive cells
# Protocol: Migration assays were performed as previously described (Mota, M., et al.). Sporozoites were pre-incubated±10 mM E-64 for two hours at 28° C. and added to monolayers of Hepa 1-6 cells in the continued presence of inhibitor with 1 mg/ml rhodamine-dextran, 10,000 MW (Molecular Probes). After one hour at 37° C., the cells were washed, fixed and the number of rhodamine-positive cells in each field was counted.
# P. yoelii sporozoites [4] = assay: Sporozoite infectivity in vivo (liver 18S rRNA by RT and real time PCR); parameters: species or system Plasmodium yoelii in Swiss/Webster mice
# Protocol: Swiss/Webster mice were given three intraperitoneal injections of DMEM with or without E-64 (50 mg/kg/injection) at 16 hours, 2.5 hours, and 1 hour prior to intravenous injection of 15,000 P. yoelii sporozoites. Forty hours later, livers were harvested and total RNA was isolated using Tri-Reagent (Molecular Research Center, Cincinnati, Ohio). Malaria infection was quantified using reverse-transcription (RT) followed by real time PCR as outlined in (Bruna-Romero, et al. (2001)). RTs were performed with […] of total RNA and random hexamers (PE Applied Biosystems, Foster City, Calif.). Real time PCR was performed using primers that recognize P. yoelii-specific sequences within the 18S rRNA (Bruna-Romero, et al. (2001)) and the SYBR Green Core PCR kit (PE Applied Biosystems). Ten-fold dilutions of a plasmid construct containing the P. yoelii 18S gene were used to create a standard curve.
# Swiss/Webster mice were given either 5 or 8 mg/kg of allicin (in DMEM without Cys/Met) intravenously (i.v.) at 60 minutes, 30 minutes, or immediately before i.v. injection of 10^4 P. yoelii sporozoites. Forty hours later, livers were harvested, total RNA was isolated, and malaria infection was quantified using reverse transcription (RT) followed by real time PCR using primers that recognize P. yoelii-specific sequences within the 18S rRNA as previously described (Bruna-Romero, O., et al.). Ten-fold dilutions of a plasmid construct containing the P. yoelii 18S rRNA gene were used to create a standard curve. For allicin preincubation experiments, P. yoelii sporozoites were preincubated with or without 50 μM allicin (in DMEM without Cys/Met) for ten minutes at 28° C. and diluted 12-fold with medium before i.v. injection into mice. All in vivo data were analyzed using the Student t-test for unpaired samples.
# P. berghei sporozoites [5] = assay: Propidium iodide toxicity assay on sporozoites; type: cell-based, Plasmodium berghei; settings: for toxicity to sporozoites (propidium iodide): ten minutes
# Protocol: When sporozoites were incubated with specific inhibitors, their concentrations were as follows: 10 […] E-64; 1 mM phenylmethylsulfonyl fluoride (PMSF); 0.3 mM aprotinin; 100 mM 3,4 DCl; 75 mM leupeptin; 100 mM TLCK; 1 mM pepstatin; 1 mM 1,10 phenanthroline; 5 mM EDTA; 0.5% sodium azide. To check for toxicity by propidium iodide (PI) staining, P. berghei sporozoites were incubated in the presence or absence of the various protease inhibitors for two hours at 28° C., PI was then added to a final concentration of […] for five minutes at 28° C. The sporozoites were washed and viewed under a fluorescent microscope.
# P. berghei sporozoites were incubated with the indicated concentrations of allicin for ten or sixty minutes at 28° C., washed with DMEM, and then incubated with 1 μg/ml propidium iodide for five minutes at 25° C. The number of fluorescent sporozoites in each sample was counted using a Nikon Eclipse E600 microscope. Control samples consisted of sporozoites that were incubated for sixty minutes at 28° C. in DMEM without allicin and sporozoites that were heat killed at 65° C. for ten minutes.
Compound,"effect on sporozoite invasion, target cells pretreated (P. berghei sporozoites [1]; Hepa 1-6 cells pretreated with E-64, untreated sporozoites)",number of extracellular (attached) sporozoites (P. berghei sporozoites [1]; in the presence of E-64),"inhibition of invasion (P. berghei sporozoites [1]; sporozoites preincubated two hours with 10 mM E-64, Hepa 1-6 cells, one hour) [%]","intracellular sporozoites in the presence of inhibitor (P. berghei sporozoites [1]; wild type and RCon sporozoites, Hepa 1-6, 1 hr)",percentage of sporozoites that exhibited gliding motility (P. yoelii sporozoites [2]),sporozoite migration through cells [3],"protection from malaria infection (liver P. yoelii 18S rRNA) (P. yoelii sporozoites [4]; E-64 50 mg/kg/injection intraperitoneal at 16 hours, 2.5 hours, 1 hour before 15,000 sporozoites i.v.)","number of fluorescent (propidium iodide) sporozoites (P. berghei sporozoites [5]; 50 μM allicin 10 minutes, then 4.2 μM for 50 minutes)","increase in number of sporozoites taking up propidium iodide (P. berghei sporozoites [5]; 50 μM allicin, one hour) [fold]",toxicity to sporozoites (propidium iodide) (P. berghei sporozoites [5]; 50 μM allicin),percentage of sporozoites that took up propidium iodide (P. berghei sporozoites [5]; 1 or 10 μM allicin for up to one hour),toxicity to sporozoites (propidium iodide) (P. berghei sporozoites [5]; allicin concentrations higher than 50 μM),"sporozoite invasion of cells (P. berghei sporozoites [1]; 10, 25, and 50 μM allicin pretreatment)","effect on invasion, host cells pretreated (P. berghei sporozoites [1]; Hepa 1-6 cells preincubated with 50 μM allicin one hour, untreated sporozoites)",sporozoite infectivity in vivo versus untreated controls (P. yoelii sporozoites [4]; 8 mg/kg allicin i.v. just before injection of sporozoites),protection in vivo (P. yoelii sporozoites [4]; 8 mg/kg allicin i.v. one hour before sporozoites),sporozoite infectivity in vivo versus untreated mice (P. yoelii sporozoites [4]; 8 mg/kg allicin i.v. thirty minutes before sporozoites),reduction in infection (P. yoelii sporozoites [4]; allicin 5 mg/kg i.v. one minute before sporozoites) [fold],decrease in infection compared to controls (P. yoelii sporozoites [4]; allicin 8 mg/kg i.v. one minute before sporozoites) [fold],"malaria infection in mice injected with pretreated sporozoites (P. yoelii sporozoites [4]; sporozoites preincubated with 50 μM allicin ten minutes, diluted 12-fold)"
"CC(C)C[C@H](NC(=O)[C@H]1O[C@@H]1C(=O)O)C(=O)NCCCCN=C(N)N (relative stereo) [E-64, L-trans-epoxysuccinyl-leucylamide-[4-guanido]-butane]",no inhibitory effect on sporozoite invasion,always enhanced,90,few intracellular wild type and RCon sporozoites,no effect,did not inhibit sporozoite migration through cells,completely protected from malaria infection,–,–,–,–,–,–,–,–,–,–,–,–,–
C=CCS[S+]([O-])CC=C (centres unmarked) [allicin],–,–,–,–,–,–,–,did not increase the number of fluorescent sporozoites compared to the untreated control,1.5,did not kill sporozoites,no different from the untreated control,toxic to the sporozoites even after only ten minutes of exposure,inhibited sporozoite invasion of cells in a dose dependent manner,no effect on invasion,significantly decreased infectivity,little protection,decreased infectivity,10,1000,no evidence of malaria infection
